Reference: patent US20240246955A1, “TROPOMYOSIN RECEPTOR KINASE (TRK) DEGRADATION COMPOUNDS AND METHODS OF USE” (CULLGEN (SHANGHAI), INC., priority 2021, published 2024)

Legend:
KM12 cells = assay: KM12 cell viability assay (CellTiter-Glo); type: cell-based; details: for viability of KM12 cells: 11-point 3-fold serial dilution, 3 days (FIG. 3); for IC50: Homo sapiens, 72 h, KM12 cells, 3 days, CellTiter-Glo
Procedure: The kinase activity of TRK is known to play important roles in tumors expressing TRK-fusion proteins, as TRK kinase inhibitors compromise cell proliferation, survival, and induce marked clinical responses (Amatu et al., 2016; Drilon et al., 2018; Drilon et al., 2017; Khotskaya et al., 2017). KM12 cells seeded in 96-well plates were treated with heterobifunctional compounds following a 11-point 3-fold serial dilution. Three days after treatment, cell viability was determined using the CellTiter-Glo kit, and normalized to the mean values of 3 replicates of untreated cells. Dose-dependent response was analyzed following the least-squares non-linear regression method using the GraphPad Prism software. Each data point in the figure represents the mean values of three technical replicates ±standard deviation.
KM12 cells seeded in 96-well plates were treated with heterobifunctional compounds following a 11-point 3-fold serial dilution for 3 days.
KM12, TRKA G595R mutated KM12, HEL, and other cells were cultured at 37° C. with 5% CO2 in DMEM or RPMI 1640 Medium supplemented with 10% fetal bovine serum. Cells were authenticated using the short tandem repeat (STR) assays. Mycoplasma test results were negative.
Cells were seeded at a density of 5000 cells per well in 96-well assay plates and treated with test compounds following a 11-point 3-fold serial dilution. Three days later, cell viability was determined using the CellTiter-Glo assay kit (Promega) according to the manufacturer's instructions. The dose-response curves were determined and IC50 values were calculated using the GraphPad Prism software following a nonlinear regression (least squares fit) method.

TPM3-TRKA fusion protein = target: T1, TPM3-TRKA fusion protein (Homo sapiens, UniProt P04629); assay: TPM3-TRKA degradation in KM12 cells (Western blot); type: cell-based; details: 16 hours, TRK protein, immunoblot; for inhibition at 0.01 µM: 10 nM; for inhibition at 0.1 µM: 100 nM
T1 construct: TPM3 (N-terminal part of tropomyosin alpha-3, natural fusion partner); endogenous in cells; host or cells: KM12 colon cancer cells; the other entry of the earlier key: TPM3 (P06753, Tropomyosin alpha-3 chain)
Procedure: Specific exemplary heterobifunctional compounds were characterized in KM12 cells. KM12 cells that express TPM3-TRKA fusion protein were treated with 10 nM or 100 nM heterobifunctional compounds disclosed herein or their corresponding warheads/inhibitors for 16 hours. Cells were collected, lysed and subject to immunoblotting using an antibody specific to TRK proteins.
KM12 cells were treated with heterobifunctional compounds at 10 nM or 100 nM for 16 hours.
Cultured cells were washed with cold PBS once and lysed in cold RIPA buffer supplemented with protease inhibitors and phosphatase inhibitors (Beyotime Biotechnology). The solutions were then incubated at 4° C. for 30 minutes with gentle agitation to fully lyse cells. Cell lysates were centrifuged at 13,000 rpm for 10 minutes at 4° C. and pellets were discarded. Total protein concentrations in the lysates were determined by BCA assays (Beyotime Biotechnology). Cell lysates were mixed with Laemmli loading buffer to 1× and heated at 99° C. for 5 min. Proteins were resolved on SDS-PAGE and visualized by chemiluminescence. Images were taken by a ChemiDoc MP Imaging system (Bio-Rad). Protein bands were quantitated using the software provided by Bio-Rad.
The percentage of TRK protein degradation of each compound at 10 nM and 100 nM was determined in KM12 cells as described in Methods. The percentage of degradation of each compound was indicated in the following categories: N/A: data not available; −: no degradation; +: degradation less than 50%; ++: degradation equal or greater than 50% but less than […]; +++: degradation equal or greater than 80%.

T1 sequence (P04629 with tags, fused parts or gaps): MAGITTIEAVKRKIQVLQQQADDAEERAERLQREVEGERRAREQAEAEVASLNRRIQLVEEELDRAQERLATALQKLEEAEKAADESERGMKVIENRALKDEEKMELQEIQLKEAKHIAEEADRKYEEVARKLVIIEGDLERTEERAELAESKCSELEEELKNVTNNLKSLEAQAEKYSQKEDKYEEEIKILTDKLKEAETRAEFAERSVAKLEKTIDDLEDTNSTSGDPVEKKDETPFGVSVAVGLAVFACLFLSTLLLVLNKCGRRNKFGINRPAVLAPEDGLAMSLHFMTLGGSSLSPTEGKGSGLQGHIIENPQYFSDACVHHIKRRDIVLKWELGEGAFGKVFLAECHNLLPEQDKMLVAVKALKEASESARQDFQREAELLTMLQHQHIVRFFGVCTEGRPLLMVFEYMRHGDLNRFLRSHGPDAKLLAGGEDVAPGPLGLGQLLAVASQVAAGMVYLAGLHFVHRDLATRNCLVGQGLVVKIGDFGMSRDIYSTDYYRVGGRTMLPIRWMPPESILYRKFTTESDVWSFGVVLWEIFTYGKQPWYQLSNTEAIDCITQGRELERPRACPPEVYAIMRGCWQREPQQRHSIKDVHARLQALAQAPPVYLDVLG

Row | SMILES | inhibition at 0.01 µM (TPM3-TRKA fusion protein) [%] | inhibition at 0.1 µM (TPM3-TRKA fusion protein) [%] | viability of KM12 cells (KM12 cells) | IC50 (KM12 cells) [nM]
1 | COCCN1C[C@@H](NC(=O)Nc2c(C)c(-c3cnc(N4CCN(C(=O)CNc5ccc6c(c5)C(=O)N(C5CCC(=O)NC5=O)C6=O)CC4)nc3)nn2-c2ccccc2)[C@H](c2cccc(F)c2)C1 (stereo partly drawn) [CPD-019, 1-(3-(2-(4-((2-(2,6-dioxopiperidin-3-yl)-1,3-dioxoisoindolin-5-yl)glycyl)piperazin-1-yl)pyrimidin-5-yl)-4-methyl-1-phenyl-1H-pyrazol-5-yl)-3-((3S,4R)-4-(3-fluorophenyl)-1-(2-methoxyethyl)pyrrolidin-3-yl)urea] | > 80 | > 80 | inhibited the viability | 9.2
2 | COCCN1C[C@@H](NC(=O)Nc2c(C)c(-c3cnc(N4CCN(C(=O)CCOCCOCCOCCNc5cccc6c5C(=O)N(C5CCC(=O)NC5=O)C6=O)CC4)nc3)nn2-c2ccccc2)[C@H](c2cccc(F)c2)C1 (stereo partly drawn) [CPD-005, 1-(3-(2-(4-(3-(2-(2-(2-((2-(2,6-dioxopiperidin-3-yl)-1,3-dioxoisoindolin-4-yl)amino)ethoxy)ethoxy)ethoxy)propanoyl)piperazin-1-yl)pyrimidin-5-yl)-4-methyl-1-phenyl-1H-pyrazol-5-yl)-3-((3S,4R)-4-(3-fluorophenyl)-1-(2-methoxyethyl)pyrrolidin-3-yl)urea] | > 80 | > 80 |  | 47.3
3 | COCCN1C[C@@H](NC(=O)Nc2c(C)c(-c3cnc(N4CCN(C(=O)CNc5cccc6c5C(=O)N(C5CCC(=O)NC5=O)C6=O)CC4)nc3)nn2-c2ccccc2)[C@H](c2cccc(F)c2)C1 (stereo partly drawn) [CPD-003, 1-(3-(2-(4-((2-(2,6-dioxopiperidin-3-yl)-1,3-dioxoisoindolin-4-yl)glycyl)piperazin-1-yl)pyrimidin-5-yl)-4-methyl-1-phenyl-1H-pyrazol-5-yl)-3-((3S,4R)-4-(3-fluorophenyl)-1-(2-methoxyethyl)pyrrolidin-3-yl)urea] | > 80 | > 80 | inhibited the viability | 5.1
4 | COCCN1C[C@@H](NC(=O)Nc2c(C)c(-c3cnc(N4CCN(C(=O)CCCCCNc5ccc6c(c5)C(=O)N(C5CCC(=O)NC5=O)C6=O)CC4)nc3)nn2-c2ccccc2)[C@H](c2cccc(F)c2)C1 (stereo partly drawn) [CPD-008, 1-(3-(2-(4-(6-((2-(2,6-dioxopiperidin-3-yl)-1,3-dioxoisoindolin-5-yl)amino)hexanoyl)piperazin-1-yl)pyrimidin-5-yl)-4-methyl-1-phenyl-1H-pyrazol-5-yl)-3-((3S,4R)-4-(3-fluorophenyl)-1-(2-methoxyethyl)pyrrolidin-3-yl)urea] | > 80 | > 80 |  | 10.6
5 | COCCN1C[C@@H](NC(=O)Nc2c(C)c(-c3cnc(N4CCN(C(=O)CCCCCCCNc5cccc6c5C(=O)N(C5CCC(=O)NC5=O)C6=O)CC4)nc3)nn2-c2ccccc2)[C@H](c2cccc(F)c2)C1 (stereo partly drawn) [CPD-009, 1-(3-(2-(4-(8-((2-(2,6-dioxopiperidin-3-yl)-1,3-dioxoisoindolin-4-yl)amino)octanoyl)piperazin-1-yl)pyrimidin-5-yl)-4-methyl-1-phenyl-1H-pyrazol-5-yl)-3-((3S,4R)-4-(3-fluorophenyl)-1-(2-methoxyethyl)pyrrolidin-3-yl)urea] | > 80 | > 80 |  | 13.6
6 | COCCN1C[C@@H](NC(=O)Nc2c(C)c(-c3cnc(N4CCN(C(=O)CNC(=O)C[C@H](NC(=O)[C@@H]5C[C@@H](O)CN5C(=O)[C@@H](NC(=O)C5(F)CC5)C(C)(C)C)c5ccc(-c6scnc6C)cc5)CC4)nc3)nn2-c2ccccc2)[C@H](c2cccc(F)c2)C1 [CPD-011, (2S,4R)-1-((S)-2-(1-fluorocyclopropane-1-carboxamido)-3,3-dimethylbutanoyl)-N-((S)-3-((2-(4-(5-(5-(3-((3S,4R)-4-(3-fluorophenyl)-1-(2-methoxyethyl)pyrrolidin-3-yl)ureido)-4-methyl-1-phenyl-1H-pyrazol-3-yl)pyrimidin-2-yl)piperazin-1-yl)-2-oxoethyl)amino)-1-(4-(4-methylthiazol-5-yl)phenyl)-3-oxopropyl)-4-hydroxypyrrolidine-2-carboxamide] | < 50 | 50 to 800 |  | 119

Second part, led by results:

Row | inhibition at 0.01 µM (TPM3-TRKA fusion protein) [%] | inhibition at 0.1 µM (TPM3-TRKA fusion protein) [%] | SMILES | viability of KM12 cells (KM12 cells) | IC50 (KM12 cells) [nM]
7 | < 50 | 50 to 800 | COCCN1C[C@@H](NC(=O)Nc2c(C)c(-c3cnc(N4CCN(C(=O)CCCNC(=O)C[C@H](NC(=O)[C@@H]5C[C@@H](O)CN5C(=O)[C@@H](NC(=O)C5(F)CC5)C(C)(C)C)c5ccc(-c6scnc6C)cc5)CC4)nc3)nn2-c2ccccc2)[C@H](c2cccc(F)c2)C1 [CPD-013, (2S,4R)-1-((S)-2-(1-fluorocyclopropane-1-carboxamido)-3,3-dimethylbutanoyl)-N-((S)-3-((4-(4-(5-(5-(3-((3S,4R)-4-(3-fluorophenyl)-1-(2-methoxyethyl)pyrrolidin-3-yl)ureido)-4-methyl-1-phenyl-1H-pyrazol-3-yl)pyrimidin-2-yl)piperazin-1-yl)-4-oxobutyl)amino)-1-(4-(4-methylthiazol-5-yl)phenyl)-3-oxopropyl)-4-hydroxypyrrolidine-2-carboxamide] |  | 79.7
8 | < 50 | 50 to 800 | COCCN1C[C@@H](NC(=O)Nc2c(C)c(-c3cnc(N4CCN(C(=O)CCCCCNC(=O)C[C@H](NC(=O)[C@@H]5C[C@@H](O)CN5C(=O)[C@@H](NC(=O)C5(F)CC5)C(C)(C)C)c5ccc(-c6scnc6C)cc5)CC4)nc3)nn2-c2ccccc2)[C@H](c2cccc(F)c2)C1 [CPD-012, (2S,4R)-1-((S)-2-(1-fluorocyclopropane-1-carboxamido)-3,3-dimethylbutanoyl)-N-((S)-3-((6-(4-(5-(5-(3-((3S,4R)-4-(3-fluorophenyl)-1-(2-methoxyethyl)pyrrolidin-3-yl)ureido)-4-methyl-1-phenyl-1H-pyrazol-3-yl)pyrimidin-2-yl)piperazin-1-yl)-6-oxohexyl)amino)-1-(4-(4-methylthiazol-5-yl)phenyl)-3-oxopropyl)-4-hydroxypyrrolidine-2-carboxamide] |  | 132
9 |  | 50 to 800 | COCCN1C[C@@H](NC(=O)Nc2c(C)c(-c3cnc(N4CCN(C(=O)CCOCCOCCOCCNC(=O)C[C@H](NC(=O)[C@@H]5C[C@@H](O)CN5C(=O)[C@@H](NC(=O)C5(F)CC5)C(C)(C)C)c5ccc(-c6scnc6C)cc5)CC4)nc3)nn2-c2ccccc2)[C@H](c2cccc(F)c2)C1 [CPD-017, (2S,4R)-1-((S)-2-(1-fluorocyclopropane-1-carboxamido)-3,3-dimethylbutanoyl)-N-((S)-16-(4-(5-(5-(3-((3S,4R)-4-(3-fluorophenyl)-1-(2-methoxyethyl)pyrrolidin-3-yl)ureido)-4-methyl-1-phenyl-1H-pyrazol-3-yl)pyrimidin-2-yl)piperazin-1-yl)-1-(4-(4-methylthiazol-5-yl)phenyl)-3,16-dioxo-7,10,13-trioxa-4-azahexadecyl)-4-hydroxypyrrolidine-2-carboxamide] |  | 445
10 | 50 to 800 | > 80 | COCCN1C[C@@H](NC(=O)Nc2c(C)c(-c3cnc(N4CCN(C(=O)CCCCCCCNC(=O)C[C@H](NC(=O)[C@@H]5C[C@@H](O)CN5C(=O)[C@@H](NC(=O)C5(F)CC5)C(C)(C)C)c5ccc(-c6scnc6C)cc5)CC4)nc3)nn2-c2ccccc2)[C@H](c2cccc(F)c2)C1 [CPD-014, (2S,4R)-1-((S)-2-(1-fluorocyclopropane-1-carboxamido)-3,3-dimethylbutanoyl)-N-((S)-3-((8-(4-(5-(5-(3-((3S,4R)-4-(3-fluorophenyl)-1-(2-methoxyethyl)pyrrolidin-3-yl)ureido)-4-methyl-1-phenyl-1H-pyrazol-3-yl)pyrimidin-2-yl)piperazin-1-yl)-8-oxooctyl)amino)-1-(4-(4-methylthiazol-5-yl)phenyl)-3-oxopropyl)-4-hydroxypyrrolidine-2-carboxamide] |  | 17.8
